Measurements from ChEMBL document CHEMBL3885881, “DrugMatrix”.

Organism: Rattus norvegicus
Assay: DrugMatrix - Regimen: Daily Repeat
Format: toxicity, organism-based, Sprague-Dawley
Design: regimen Daily Repeat, gender Male, age 6-8 weeks
Details: in vivo, po, route oral GAVAGE, vehicle 100 % WATER; for ABSOLUTE BASOPHIL / ABSOLUTE EOSINOPHIL / ABSOLUTE LYMPHOCYTE / ABSOLUTE MONOCYTE / ABSOLUTE SEGMENTED NEUTROPHIL / BASOPHIL / EOSINOPHIL / ERYTHROCYTE COUNT / HEMATOCRIT / HEMOGLOBIN / LEUKOCYTE COUNT / LYMPHOCYTE / MEAN CORPUSCULAR HEMOGLOBIN / MEAN CORPUSCULAR HEMOGLOBIN CONCENTRATION / MEAN CORPUSCULAR VOLUME / MONOCYTE / NEUTROPHIL / NUCLEATED RED BLOOD CELLS / PLATELET COUNT: tissue Blood; for ALANINE AMINOTRANSFERASE / ALBUMIN / ALKALINE PHOSPHATASE / ASPARTATE AMINOTRANSFERASE / BLOOD UREA NITROGEN / CARBON DIOXIDE / CHLORIDE / CHOLESTEROL / CREATINE PHOSPHOKINASE / CREATININE / GLUCOSE / LACTATE DEHYDROGENASE / LIPASE / PHOSPHORUS / POTASSIUM / SODIUM / TOTAL BILIRUBIN / TOTAL PROTEIN / URIC ACID: tissue Plasma
[1] = 19.5 mg/kg, 120 h, dose level Low, time 5 day
[2] = 75 mg/kg, 72 h, dose level High, time 3 day
[3] = 75 mg/kg, 120 h, dose level High, time 5 day

## CN1CCC[C@H]1c1cccnc1 [NICOTINE]
[1]
  ABSOLUTE BASOPHIL: 0 CELLS/uL
  ABSOLUTE EOSINOPHIL: 37.67 CELLS/uL
  ABSOLUTE LYMPHOCYTE: 10299.33 CELLS/uL
  ABSOLUTE MONOCYTE: 0 CELLS/uL
  ABSOLUTE SEGMENTED NEUTROPHIL: 1096.33 CELLS/uL
  BASOPHIL: 0%
  EOSINOPHIL: 0.33%
  ERYTHROCYTE COUNT: 5.67 x10E6/uL
  HEMATOCRIT: 35.63%
  HEMOGLOBIN: 14.17 G/DL
  LEUKOCYTE COUNT: 11.43 x10E3/uL
  LYMPHOCYTE: 90.33%
  MEAN CORPUSCULAR HEMOGLOBIN: 25 pg
  MEAN CORPUSCULAR HEMOGLOBIN CONCENTRATION: 39.77 G/DL
  MEAN CORPUSCULAR VOLUME: 62.83 fL
  MONOCYTE: 0%
  NEUTROPHIL: 9.33%
  NUCLEATED RED BLOOD CELLS: 0.33 /100WBC
  PLATELET COUNT: 1167.67 x10E3/uL
  ALANINE AMINOTRANSFERASE: 54.67 u/L
  ALBUMIN: 4.17 G/DL
  ALKALINE PHOSPHATASE: 397.33 u/L
  ASPARTATE AMINOTRANSFERASE: 83.67 u/L
  BLOOD UREA NITROGEN: 12 mg/dL
  CARBON DIOXIDE: 34.33 mmol/L
  CHLORIDE: 101 MEQ/L
  CHOLESTEROL: 62.33 mg/dL
  CREATINE PHOSPHOKINASE: 196.67 u/L
  CREATININE: 0.21 mg/dL
  GLUCOSE: 146.67 mg/dL
  LACTATE DEHYDROGENASE: 207.67 u/L
  LIPASE: 11.67 u/L
  PHOSPHORUS: 11.63 mg/dL
  POTASSIUM: 6.48 MEQ/L
  SODIUM: 143.9 MEQ/L
  TOTAL BILIRUBIN: 0.23 mg/dL
  TOTAL PROTEIN: 6.03 G/DL
  URIC ACID: 1.2 mg/dL
[2]
  ABSOLUTE BASOPHIL: 0 CELLS/uL
  ABSOLUTE EOSINOPHIL: 0 CELLS/uL
  ABSOLUTE LYMPHOCYTE: 13562.33 CELLS/uL
  ABSOLUTE MONOCYTE: 210.33 CELLS/uL
  ABSOLUTE SEGMENTED NEUTROPHIL: 827.33 CELLS/uL
  BASOPHIL: 0%
  EOSINOPHIL: 0%
  ERYTHROCYTE COUNT: 5.82 x10E6/uL
  HEMATOCRIT: 37.17%
  HEMOGLOBIN: 14.57 G/DL
  LEUKOCYTE COUNT: 14.6 x10E3/uL
  LYMPHOCYTE: 93%
  MEAN CORPUSCULAR HEMOGLOBIN: 25.03 pg
  MEAN CORPUSCULAR HEMOGLOBIN CONCENTRATION: 39.2 G/DL
  MEAN CORPUSCULAR VOLUME: 63.87 fL
  MONOCYTE: 1.33%
  NEUTROPHIL: 5.67%
  NUCLEATED RED BLOOD CELLS: 0.33 /100WBC
  PLATELET COUNT: 1370 x10E3/uL
  ALANINE AMINOTRANSFERASE: 58.67 u/L
  ALBUMIN: 4.07 G/DL
  ALKALINE PHOSPHATASE: 398 u/L
  ASPARTATE AMINOTRANSFERASE: 92 u/L
  BLOOD UREA NITROGEN: 11 mg/dL
  CARBON DIOXIDE: 25.67 mmol/L
  CHLORIDE: 101.33 MEQ/L
  CHOLESTEROL: 64 mg/dL
  CREATINE PHOSPHOKINASE: 288.33 u/L
  CREATININE: 0.13 mg/dL
  GLUCOSE: 150.33 mg/dL
  LACTATE DEHYDROGENASE: 290.67 u/L
  LIPASE: 10.33 u/L
  PHOSPHORUS: 11.73 mg/dL
  POTASSIUM: 6.07 MEQ/L
  SODIUM: 143.23 MEQ/L
  TOTAL BILIRUBIN: 0.17 mg/dL
  TOTAL PROTEIN: 5.73 G/DL
  URIC ACID: 1.6 mg/dL
[3]
  ABSOLUTE BASOPHIL: 0 CELLS/uL
  ABSOLUTE EOSINOPHIL: 0 CELLS/uL
  ABSOLUTE LYMPHOCYTE: 9380.67 CELLS/uL
  ABSOLUTE MONOCYTE: 97.67 CELLS/uL
  ABSOLUTE SEGMENTED NEUTROPHIL: 455 CELLS/uL
  BASOPHIL: 0%
  EOSINOPHIL: 0%
  ERYTHROCYTE COUNT: 6.33 x10E6/uL
  HEMATOCRIT: 38.6%
  HEMOGLOBIN: 15.23 G/DL
  LEUKOCYTE COUNT: 9.93 x10E3/uL
  LYMPHOCYTE: 94.33%
  MEAN CORPUSCULAR HEMOGLOBIN: 24.1 pg
  MEAN CORPUSCULAR HEMOGLOBIN CONCENTRATION: 39.5 G/DL
  MEAN CORPUSCULAR VOLUME: 61 fL
  MONOCYTE: 1%
  NEUTROPHIL: 4.67%
  NUCLEATED RED BLOOD CELLS: 0.33 /100WBC
  PLATELET COUNT: 1256.67 x10E3/uL
  ALANINE AMINOTRANSFERASE: 64.67 u/L
  ALBUMIN: 4.53 G/DL
  ALKALINE PHOSPHATASE: 383 u/L
  ASPARTATE AMINOTRANSFERASE: 91 u/L
  BLOOD UREA NITROGEN: 12.67 mg/dL
  CARBON DIOXIDE: 33 mmol/L
  CHLORIDE: 101.67 MEQ/L
  CHOLESTEROL: 71.67 mg/dL
  CREATINE PHOSPHOKINASE: 315 u/L
  CREATININE: 0.22 mg/dL
  GLUCOSE: 140.33 mg/dL
  LACTATE DEHYDROGENASE: 131.33 u/L
  LIPASE: 9.67 u/L
  PHOSPHORUS: 9.5 mg/dL
  POTASSIUM: 5.03 MEQ/L
  SODIUM: 147.7 MEQ/L
  TOTAL BILIRUBIN: 0.17 mg/dL
  TOTAL PROTEIN: 6.6 G/DL
  URIC ACID: 0.77 mg/dL
